Publication PMC7679387, “VZHE-039, a novel antisickling agent that prevents erythrocyte sickling under both hypoxic and anoxic conditions” (Scientific Reports, 2020)
Where “and” joins values, the source holds several entries; their conditions need not be identical. Equal entries are not always repeated.

Experiments:
[1] = Caco-2 bi-directional permeability; assay type: in vitro ADME, human; details: human, Caco-2, pH 7.4; read-out: Efflux ratio (Re)
Protocol: (§1) Toxicity concerns remain an important issue in the use of aromatic aldehydes in treating a chronic disease, such as SCD, especially as it involves modification of a large amount of in vivo present Hb. […] We evaluated key metrics such as in vitro RBC partitioning and ADME/safety profiles, in order to glean important safety insights. […] We also assessed VZHE-039 at 10 μM for its bi-directional cell permeability using Caco-2 cell monolayers[53],[54].
(§2) Human epithelial colorectal adenocarcinoma (Caco-2) cells (HTB-37) were cultured in T75 flasks using complete Dulbecco’s Modified Eagles Medium (DMEM) containing 10% fetal bovine serum (FBS), 1% glutamine, 1% penicillin and 1% streptomycin, at 37 °C in a 5% CO2 atmosphere. Cells were passaged at 80–90% confluency using 0.05% trypsin–EDTA and the medium was changed every other day. Following this, the cells were trypsinized, suspended in medium and applied to a Millipore 96-well plate where they were cultured as monolayers at a density of 25,000 cells/well. The cells were incubated in a 37 °C/5% CO2 incubator to allow cell attachment and proliferation. Media was changed every 2–3 days for 21 days when cells reached 100% confluency. For Apical → Basolateral (A → B) permeability, 10 μM VZHE-039 was added to the apical (A) side and the amount of permeation determined on the basolateral (B) side; for Basolateral → Apical (B → A) permeability, 10 μM VZHE-039 was added to the B-side and the amount of permeation was determined on the A side. The A-side buffer contained 100 μM lucifer yellow dye, in Transport Buffer (1.98 g/L glucose in 10 mM HEPES, 1 × Hank’s Balanced Salt Solution) pH 7.4, and the B-side buffer used was the Transport Buffer at pH 7.4. Caco-2 cells were incubated with 10 μM VZHE0-39 in these buffers for 2 h. Ranitidine (low permeability), Warfarin (high permeability) and Talinolol (P-gp efflux control) were used as controls. […] Following centrifugation, the supernatant for donor and receiver side samples was analyzed by LC–MS/MS to determine peak area ratios.
(§3) The efflux ratio (Re) was calculated as: Re=PappB→A/PappA→B

Caco-2 cell monolayers = assay: Caco-2 bi-directional permeability; assay type: in vitro ADME, human; details: Caco-2 monolayers
Protocol: as §1, §2, §3

HbS = target: T1, HbS (Homo sapiens, UniProt P69905); assay: Hb modification (HbS adduct formation) by cation-exchange HPLC of lysates from SS cells; assay type: cell-based; details: SS cells, 20% hematocrit, HPLC of hemolysates
T1 construct: whole blood suspensions from subjects with homozygous SCD (Hct of 20%); from tissue; host or cells: whole blood / red blood cells of patients with homozygous SS sickle cell disease; lysate for HPLC and OEC
T1 sequence (P69905 2-142): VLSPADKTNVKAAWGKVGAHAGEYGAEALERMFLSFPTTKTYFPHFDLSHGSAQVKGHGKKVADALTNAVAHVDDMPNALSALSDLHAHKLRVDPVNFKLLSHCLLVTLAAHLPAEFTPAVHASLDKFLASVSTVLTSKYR
T1 sequence (P68871 with tags, fused parts or gaps E7V partner): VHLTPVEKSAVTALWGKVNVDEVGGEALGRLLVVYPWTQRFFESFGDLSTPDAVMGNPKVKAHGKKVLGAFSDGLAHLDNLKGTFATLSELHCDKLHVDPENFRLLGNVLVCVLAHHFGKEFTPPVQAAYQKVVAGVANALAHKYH
Protocol: For our previously studied compounds (e.g., INN-312, TD-7, SAJ-310, INN-298) that incorporate methoxyPy substitution to vanillin analogs, we observed a significant increase in functional and biological activity as a result of increased protein interactions[31],[33],[35],[36]. We therefore expected similar effects for VZHE-039, which we tested by following VZHE-039 activity (measured by Hb adduct formation, P50-shift and RBC sickling inhibition) using SS blood. Briefly, we incubated 0.5, 1, and 2 mM concentrations of VZHE-039 with whole blood suspensions from subjects with homozygous SCD (Hct of 20%) under hypoxic conditions (2.5% O2/97.5% N2) at 37 °C for 2 h for expected peak adduct. Aliquot blood samples were drawn into a fixative (2% glutaraldehyde solution), and sickling was assessed by microscopy[31],[33],[35],[36]. Aliquot samples were also subjected to cation-exchange HPLC analyses to assess the degree of Hb modification to the high-affinity adduct form (Hb adduct formation), as well as standard O2 equilibrium curves (OEC) to assess P50-shifts using hemox analyzer[31],[33],[35],[36]. […] The improved potency of Voxelotor has been attributed to reduced binding stoichiometry, i.e. while Voxelotor binds Hb at a 1:1 ratio, VZHE-039 binds Hb at a 2:1 ratio. […] This observation, as will be discussed later is likely due to a meaningful contribution from the novel O2-independent antisickling activity as result of the strong contact with the αF-helix.
The effect of VZHE-039 on RBC sickling, Hb modification, and Hb oxygen equilibrium was studied utilizing samples from consented individuals with homozygous SCD following previous procedure. Briefly, blood suspended in Hemox buffer and supplemented with glucose and bovine serum albumin, to a final hematocrit of 20% were incubated under air in the absence or presence of 0.5 mM, 1 mM and 2 mM VZHE-039 at 37 °C for 1 h. This was followed by incubating the suspensions under hypoxic conditions (2.5% O2/97.5% N2) at 37 °C for 2 h. Aliquot samples were obtained and fixed with 2% glutaraldehyde solution without exposure to air, and then subjected to microscopic morphological analysis of bright field images (at × 40 magnification) of single layer cells on an Olympus BX40 microscope fitted with an Infinity 2 camera (Olympus), and the coupled Image Capture software. Leftover samples were washed in phosphate-buffer saline, and hemolyzed in hypotonic lysis buffer for subsequent Hb-modification and oxygen equilibrium analyses.
Finally, for the Hb adduct formation studies, the above clarified lysates were subjected to cation-exchange HPLC (Hitachi D-7000 Series, Hitachi Instruments, Inc., San Jose, CA), using a weak cation-exchange column (Poly CAT A: 30 mm × 4.6 mm, Poly LC, Inc., Columbia, MD). A commercial standard consisting of approximately equal amounts of composite HbF, HbA, HbS and HbC (Helena Laboratories, Beaumont, TX), was utilized as the reference for isotypes. The areas of new peaks, representing HbS adducts, were obtained, calculated as percentage fractions of total Hb area, and reported as levels of modified Hb.

Compound: O=Cc1c(O)cccc1OCc1cccc(CO)n1 [VZHE-039, 2-((6-(Hydroxymethyl)pyridin-2-yl)methoxy)-6-hydroxybenzaldehyde]
- efflux ratio at 2 h, 10 µM [1]: 0.85
- Permeability (in words) (Caco-2 cell monolayers; 10 μM): high in vitro GI permeability
- Efflux transporter (P-gp) substrate (in words) (Caco-2 cell monolayers): not an efflux transporter (P-gp) substrate
- Hb Modification (HbS; 0.5 mM): 38% and 38.0 ± 7.2%
- Hb Modification (HbS; 1 mM): 72% and 72.6 ± 6.4%
- Hb Modification (HbS; 2 mM): 97.4 ± 6.7%
